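Grown in 96-well plates, cells were treated for 48 hours with each compound at five concentrations. Insufficient inhibition: endpoint recorded as highest concentration tested. The concentration for full growth arrest is given as TGI.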

For 10 molecules, TGI results are on record in PubChem BioAssay (NCI).

Among the test systems are KM12 colon; RPMI-8226 leukemia; SF-268 CNS; SK-MEL-5 melanoma; CCRF-CEM leukemia; HCC-2998 colon; SK-MEL-28 melanoma; HOP-62 NSCLC; K-562 leukemia; SN12C renal; UO-31 renal.
What all share (test): NCI tumour cell line growth inhibition, 48 h

As to `C/C(=N/N)c1sc(-c2nc(C)c(/C(C)=N\N)s2)nc1C`, the TGI was over 100 µM in the assay on KM12 colon; over 63.9 µM in the assay on RPMI-8226 leukemia; over 100 µM in the assay on SF-268 CNS; over 100 µM in the assay on SK-MEL-5 melanoma; over 76.7 µM in the assay on CCRF-CEM leukemia; over 100 µM in the assay on HCC-2998 colon. Moreover, the TGI in the assay with SK-MEL-28 melanoma, in the assay on HOP-62 NSCLC, in the assay on K-562 leukemia, in the assay on SN12C renal and with UO-31 renal was over 100 µM each time.

Consider `Cn1c(N)c(/C=C/C(=O)Oc2ccccc2)c(=O)n(C)c1=O`, for which the TGI in the assay on KM12 colon, in the assay with RPMI-8226 leukemia, with SF-268 CNS, in the assay on SK-MEL-5 melanoma, in the assay with CCRF-CEM leukemia and in the assay on HCC-2998 colon was over 100 µM in each case. The TGI in the assay on SK-MEL-28 melanoma was over 100 µM; in the assay with HOP-62 NSCLC, 40.9 µM; in the assay on K-562 leukemia, over 100 µM; in the assay with SN12C renal, over 100 µM; with UO-31 renal it was over 100 µM.

Turning to `CC1(C)CCC[C@@]2(C)C1CC[C@@]1(CO1)[C@@H]2/C=C\C(C=O)CC=O` (some centres undefined), the TGI was over 100 µM with KM12 colon; over 28.1 µM in the assay on RPMI-8226 leukemia; over 100 µM in the assay with SF-268 CNS; over 100 µM in the assay with SK-MEL-5 melanoma; over 68.7 µM in the assay with CCRF-CEM leukemia; over 100 µM with HCC-2998 colon. Moreover, the TGI in the assay with SK-MEL-28 melanoma is over 100 µM; in the assay with HOP-62 NSCLC, over 100 µM; with K-562 leukemia it was over 69.5 µM; in the assay with SN12C renal it was over 100 µM; in the assay with UO-31 renal it was over 100 µM.

For the molecule `CC(C)CC1NC(=O)CCC(NC(=O)C(Cc2ccc(O)cc2)NC(=O)OCc2ccccc2)C(=O)NC(Cc2ccccc2)C(=O)NC(Cc2ccccc2)NC1=O` (centres undefined), the TGI in the assay on KM12 colon, with RPMI-8226 leukemia, in the assay on SF-268 CNS, in the assay with SK-MEL-5 melanoma, with CCRF-CEM leukemia and with HCC-2998 colon was over 100 µM throughout. In addition, the TGI with SK-MEL-28 melanoma, in the assay on HOP-62 NSCLC, in the assay on K-562 leukemia, in the assay with SN12C renal and in the assay on UO-31 renal was over 100 µM each time.

With `COc1ccc(NC(/C(C(=O)C(=O)/C=C(\O)c2ccccc2)=C(\O)c2ccccc2)c2ccc(OC)cc2)cc1` (centres undefined), the TGI was over 100 µM in the assay with KM12 colon; 69.1 µM with RPMI-8226 leukemia; over 100 µM in the assay with SF-268 CNS; over 100 µM in the assay on SK-MEL-5 melanoma; over 100 µM in the assay on CCRF-CEM leukemia; 62.3 µM in the assay with HCC-2998 colon. The TGI with SK-MEL-28 melanoma, in the assay on HOP-62 NSCLC, in the assay on K-562 leukemia, with SN12C renal and in the assay on UO-31 renal was over 100 µM each time.

Take `CN1CCN(Cc2ccccc2)CC1CC#N` (centres undefined): the TGI in the assay with KM12 colon, in the assay with RPMI-8226 leukemia, with SF-268 CNS, with SK-MEL-5 melanoma, in the assay on CCRF-CEM leukemia and with HCC-2998 colon was over 100 µM throughout. For the same molecule, the TGI with SK-MEL-28 melanoma, in the assay with HOP-62 NSCLC, with K-562 leukemia, with SN12C renal and in the assay with UO-31 renal was over 100 µM each time.

Take `CCOC(OC1=C(C#N)CCCC1)C(CC)[Se]c1ccccc1[N+](=O)[O-]` (centres undefined): the TGI in the assay on KM12 colon stood at 43.1 µM; in the assay on RPMI-8226 leukemia it was 43.4 µM; with SF-268 CNS, 43.6 µM; in the assay with SK-MEL-5 melanoma, 28.7 µM; in the assay with CCRF-CEM leukemia it was 49.6 µM; in the assay with HCC-2998 colon it was 45.9 µM. Besides, the TGI is 89.9 µM in the assay on SK-MEL-28 melanoma; 88.8 µM with HOP-62 NSCLC; over 100 µM in the assay with K-562 leukemia; 42.7 µM with SN12C renal; 80.5 µM with UO-31 renal.

Consider `Cc1ccc(CN2CCN(Cc3ccc(C)o3)C(C)C2)o1` (centres undefined), for which the TGI in the assay on KM12 colon, in the assay with RPMI-8226 leukemia, with SF-268 CNS, in the assay on SK-MEL-5 melanoma, in the assay with CCRF-CEM leukemia and in the assay on HCC-2998 colon was over 100 µM each time. Also, the TGI with SK-MEL-28 melanoma, in the assay with HOP-62 NSCLC, in the assay on K-562 leukemia, in the assay with SN12C renal and in the assay on UO-31 renal was over 100 µM in each case.

Consider `COC1(C)CNCC(C)(C)NC(=O)C(C)(OC)CNCC(C)(C)NC1=O` (centres undefined), for which the TGI with KM12 colon, in the assay with RPMI-8226 leukemia, in the assay with SF-268 CNS, in the assay on SK-MEL-5 melanoma, with CCRF-CEM leukemia and with HCC-2998 colon was over 100 µM in each case. Further, the TGI with SK-MEL-28 melanoma, in the assay on HOP-62 NSCLC, with K-562 leukemia, in the assay on SN12C renal and in the assay on UO-31 renal was over 100 µM in each case.

As to `O=C1c2c(O)cccc2Cc2cc(CO)cc(O)c21`, the TGI in the assay with RPMI-8226 leukemia was 7.34 µM; in the assay with SF-268 CNS, 14.3 µM; in the assay on SK-MEL-5 melanoma, 3.75 µM; in the assay on CCRF-CEM leukemia, over 100 µM; with HCC-2998 colon, 18.4 µM; with SK-MEL-28 melanoma, 27.3 µM. Also, the TGI with HOP-62 NSCLC is 11.9 µM; with K-562 leukemia, over 100 µM; in the assay on SN12C renal it was 16.9 µM; in the assay with UO-31 renal it was 4.97 µM.
